{
  "source": "patent US9161989B2",
  "about": "“Cupredoxin derived transport agents and methods of use thereof” (priority 2004, dated 2015)",
  "test_system": "UISO-MeI-2 cells",
  "assay_type": "cell-based",
  "note": "Where two headings read alike, the source gives them in different places.",
  "data": [
    {"molecule": "C=C1[C@@H](C)[C@H]2[C@H](Cc3ccccc3)NC(=O)[C@]23[C@H](OC(C)=O)/C=C/[C@@](C)(O)C(=O)[C@@H](C)C/C=C/[C@H]3[C@@H]1O", "note": "[cytochalasin D]", "values": [
      {"measurement": "Effect on uptake of azurin in UISO-MeI-2 cells", "value": "significantly reduced"}
    ]},
    {"molecule": "C[C@H]1CCC/C=C/[C@@H]2C[C@H](O)C[C@H]2[C@H](O)/C=C/C(=O)O1", "note": "[Brefeldin A]", "values": [
      {"measurement": "Effect on uptake of azurin in UISO-MeI-2 cells", "value": "no significant effect"}
    ]},
    {"molecule": "carbonyl cyanide m-chlorophrnylhydrazone [CCCP]", "values": [
      {"measurement": "Effect on uptake of azurin in UISO-MeI-2 cells", "setting": "20 pM", "value": "significantly reduced"}
    ]}
  ]
}
